Data taken from ChEMBL document CHEMBL5113526, “Design, Synthesis, and Biological Evaluation of Androgen Receptor Degrading and Antagonizing Bifunctional Steroidal Analogs for the Treatment of Advanced Prostate Cancer” (J Med Chem, 2022).

Legend:
LNCaP [1] = assay: Antiproliferative activity against human LNCAP cells assessed as reduction in cell viability at 10 uM measured after 6 days by CellTiterGlo assay relative to control; type: functional; conditions: Homo sapiens, LNCaP, time 6 day
LNCaP [2] = assay: cells; conditions: Homo sapiens
Description: Antiproliferative activity against human LNCAP cells assessed as reduction in cell viability measured after 6 days by CellTiter-Glo assay

Androgen receptor [3] = molecular target: T1, Androgen receptor (Homo sapiens, UniProt P10275); assay: Induction of AR degradation in human LNCap cells incubated for 24 hrs by sandwich ELISA analysis; type: cell-based
T1 sequence (P10275 whole entry): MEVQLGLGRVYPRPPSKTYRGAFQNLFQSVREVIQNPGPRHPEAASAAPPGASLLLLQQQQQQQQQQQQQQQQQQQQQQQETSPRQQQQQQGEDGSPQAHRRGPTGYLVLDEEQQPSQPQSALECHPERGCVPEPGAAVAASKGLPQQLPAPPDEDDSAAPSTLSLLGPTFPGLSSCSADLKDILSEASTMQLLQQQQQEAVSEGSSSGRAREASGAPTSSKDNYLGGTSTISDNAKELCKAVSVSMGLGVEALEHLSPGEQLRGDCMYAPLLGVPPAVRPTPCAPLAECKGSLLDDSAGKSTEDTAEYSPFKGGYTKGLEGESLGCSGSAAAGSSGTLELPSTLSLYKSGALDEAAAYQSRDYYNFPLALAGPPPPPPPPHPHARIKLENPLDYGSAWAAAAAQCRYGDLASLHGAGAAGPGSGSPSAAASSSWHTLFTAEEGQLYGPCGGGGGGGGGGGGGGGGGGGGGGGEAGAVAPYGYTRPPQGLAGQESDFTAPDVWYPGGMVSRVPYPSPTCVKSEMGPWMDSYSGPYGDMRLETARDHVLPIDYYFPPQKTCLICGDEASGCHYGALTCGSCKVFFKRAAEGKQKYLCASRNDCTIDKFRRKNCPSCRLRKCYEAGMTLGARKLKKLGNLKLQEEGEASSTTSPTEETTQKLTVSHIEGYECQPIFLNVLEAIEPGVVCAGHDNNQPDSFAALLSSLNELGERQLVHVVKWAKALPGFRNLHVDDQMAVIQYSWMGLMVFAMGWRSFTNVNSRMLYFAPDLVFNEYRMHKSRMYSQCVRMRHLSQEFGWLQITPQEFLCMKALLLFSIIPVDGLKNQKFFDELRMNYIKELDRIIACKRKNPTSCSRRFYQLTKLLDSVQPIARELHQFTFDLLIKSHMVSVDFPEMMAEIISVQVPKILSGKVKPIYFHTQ

Androgen receptor [4] = molecular target: T1, Androgen receptor; assay: Antagonist activity at DHT-induced Androgen receptor transcriptional activity in human HEK293 cells measured after 24 hrs by Steady-Glo reagent based assay; type: cell-based
[5] = molecular target: T2, Steroid 17-alpha-hydroxylase/17,20 lyase (Homo sapiens, UniProt P05093); assay: Inhibition of human recombinant CYP17A1 incubated for 5 mins in presence of NADPH by LC-MS/MS analysis; type: ADME
T2 sequence (P05093 whole entry): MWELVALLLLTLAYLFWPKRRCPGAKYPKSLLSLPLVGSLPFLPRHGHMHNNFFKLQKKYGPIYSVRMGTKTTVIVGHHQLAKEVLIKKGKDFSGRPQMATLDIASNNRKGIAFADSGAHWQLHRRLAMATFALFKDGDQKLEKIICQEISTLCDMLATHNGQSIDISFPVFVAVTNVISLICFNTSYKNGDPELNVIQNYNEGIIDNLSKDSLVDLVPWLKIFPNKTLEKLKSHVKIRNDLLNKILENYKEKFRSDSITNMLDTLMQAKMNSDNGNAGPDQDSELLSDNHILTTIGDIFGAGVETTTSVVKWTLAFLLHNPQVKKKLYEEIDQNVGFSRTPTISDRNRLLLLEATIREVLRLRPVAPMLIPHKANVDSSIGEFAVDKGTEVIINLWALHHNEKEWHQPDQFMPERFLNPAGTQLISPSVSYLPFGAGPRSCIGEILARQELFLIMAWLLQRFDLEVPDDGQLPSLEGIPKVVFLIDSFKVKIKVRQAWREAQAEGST

SMILES | inhibition at 10 µM (LNCaP [1]) | IC50 (LNCaP [2]) | DC50 (Androgen receptor [3]) | IC50 (Androgen receptor [4]) | IC50 [5]
Cc1cncc(C2=CC[C@H]3[C@@H]4CC=C5C[C@@H](NC(=O)c6ccnnc6)CC[C@]5(C)[C@H]4CC[C@]23C)c1 | 78.2% | 743 nM | 11.8 µM | 1640 nM | 
C[C@]12CC[C@H](NC(=O)c3ccnnc3)CC1=CC[C@@H]1[C@@H]2CC[C@]2(C)C(n3ccnn3)=CC[C@@H]12 |  | 672 nM | 4.36 µM | 9140 nM | > 3000 nM
C[C@]12CC[C@H](NC(=O)c3ccnnc3)CC1=CC[C@@H]1[C@@H]2CC[C@]2(C)C(n3cncn3)=CC[C@@H]12 | 64.4% | 238 nM |  |  | > 3000 nM
C[C@]12CC[C@H](O)C[C@@H]1[C@H](NS(=O)(=O)c1cccnc1)C[C@@H]1[C@@H]2CC[C@]2(C)C(c3cccnc3)=CC[C@@H]12 | 100% | 5430 nM |  |  | 
C[C@]12CC[C@H](NC(=O)c3ccnnc3)CC1=CC[C@@H]1[C@@H]2CC[C@]2(C)C(c3cncc(F)c3)=CC[C@@H]12 | 100% | 2210 nM |  |  | 
C[C@]12CC[C@H](NC(=O)c3ccnnc3)CC1=CC[C@@H]1[C@@H]2CC[C@]2(C)C(n3ccnc3)=CC[C@@H]12 | 92.4% | 382 nM | 2.76 µM | 981 nM | 
COc1cncc(C2=CC[C@H]3[C@@H]4CC=C5C[C@@H](NC(=O)c6ccnnc6)CC[C@]5(C)[C@H]4CC[C@]23C)c1 | 73.7% | 646 nM | 38.4 µM | 914 nM | 
C[C@]12CC[C@H](O)CC1=CC[C@@H]1[C@@H]2CC[C@]2(C)C(c3cccnc3)=CC[C@@H]12 [ABIRATERONE] | 84.7% | 2710 nM |  |  | 2 nM
Cc1cn(C2=CC[C@H]3[C@@H]4CC=C5C[C@@H](NC(=O)c6cccnc6)CC[C@]5(C)[C@H]4CC[C@]23C)cn1 | 103% | 933 nM | 3.58 µM | 1280 nM | 
C[C@]12CC[C@H](NC(=O)c3cccnc3)CC1=CC[C@@H]1[C@@H]2CC[C@]2(C)C(n3cnc4ccccc43)=CC[C@@H]12 | 109% | 1600 nM |  |  | 
C[C@]12CC[C@H](NC(=O)c3cocn3)CC1=CC[C@@H]1[C@@H]2CC[C@]2(C)C(n3cnc4ccccc43)=CC[C@@H]12 | 95.2% | 2230 nM |  |  | 
Cc1noc(C)c1S(=O)(=O)N[C@H]1CC[C@@]2(C)C(=CC[C@@H]3[C@@H]2CC[C@]2(C)C(n4cnc5ccccc54)=CC[C@@H]32)C1 | 100% | 2260 nM |  |  | 
C[C@]12CC[C@H](NC(=O)c3ccnnc3)CC1=CC[C@@H]1[C@@H]2CC[C@]2(C)C(n3cnc4ccccc43)=CC[C@@H]12 | 95.9% | 765 nM | 4.78 µM | 1350 nM | 
C[C@]12CC[C@H](NC(=O)c3cscn3)CC1=CC[C@@H]1[C@@H]2CC[C@]2(C)C(n3cnc4ccccc43)=CC[C@@H]12 | 63.2% | 978 nM |  |  | 
C[C@]12CC[C@H](NC(=O)c3cccnc3)CC1=CC[C@@H]1[C@@H]2CC[C@]2(C)C(n3cncn3)=CC[C@@H]12 | 105% | 1670 nM |  |  | 
C[C@]12CC[C@H](O)C[C@@H]1[C@H](NS(C)(=O)=O)C[C@@H]1[C@@H]2CC[C@]2(C)C(c3cccnc3)=CC[C@@H]12 |  | > 10000 nM |  |  | 
C[C@]12CC[C@H](O)C[C@@H]1[C@@H](OS(C)(=O)=O)C[C@@H]1[C@@H]2CC[C@]2(C)C(c3cccnc3)=CC[C@@H]12 | 100% | 1790 nM |  |  | 
